Results taken from US20130197040A1, “POLYMORPHS OF DALFAMPRIDINE, PREPARATIONS AND USES THEREOF” (priority 2010, published 2013).

Experiments:
[1] = Stability on exposure to the air at room temperature for 12 months, purity by HPLC; format: physicochemical; conditions: after exposure to the air at room temperature for 12 months
Protocol: (§1) The polymorphs of 4-aminopyridine or the polymorphs of the solvates thereof according to the present invention were exposed to the air at room temperature for 12 months, and then purities thereof were measured by using high performance liquid chromatography.
as §1, with “The above-mentioned eight” for “The”, “or” for “or the polymorphs”, “chromatography. The obtained purity results thereof were shown as follows:” for “chromatography.”
The purities were measured by using high performance liquid chromatography under the following conditions:
Chromatographic Column: Agilent extend-C18 (250*4.6 mm, 5 μ)
Mobile Phase: 0.01 mol/L of monopotassium phosphate solution containing 0.01 mol/L of sodium octanesulfonate (adjusted to pH 2.6 with phosphoric acid)-methanol (75:25);
Column Temperature: 40° C.;
Detection Wavelength: 264 nm;

[2] = tested on: multiple sclerosis patients; conditions: injected in 11 patients with eyesight and motor function impaired because of multiple sclerosis, 1983; cited from earlier work
[3] = tested on: multiple sclerosis patients; conditions: clinical trials (Phase III); cited from earlier work

Nc1ccncc1 [Polymorph I, 4-aminopyridine]
Purity (%) [1]: 99.66%

Nc1ccncc1 [Polymorph II, 4-aminopyridine]
Purity (%) [1]: 100%

Nc1ccncc1 [Polymorph III, 4-aminopyridine]
Purity (%) [1]: 100%

Nc1ccncc1 [Polymorph IV, 4-aminopyridine]
Purity (%) [1]: 100%

Nc1ccncc1 [Polymorph V, 4-aminopyridine]
Purity (%) [1]: 100%

Nc1ccncc1 [Polymorph VI, 4-aminopyridine]
Purity (%) [1]: 99.98%

Nc1ccncc1 [Polymorph VII, 4-aminopyridine]
Purity (%) [1]: 100%

Nc1ccncc1 [Polymorph VIII, 4-aminopyridine]
Purity (%) [1]: 100%

Nc1ccncc1 [dalfampridine, 4-aminopyridine]
eyesight [2]: improved
walking speed [2]: improved
walking speed versus placebo [3]: faster than that in patients who took a placebo
